This passage reports remaining binding results from article PMC5862592, “CDK8/19 inhibition induces premature G1/S transition and ATR-dependent cell death in prostate cancer cells” (Oncotarget, 2018).

Test in all cases: biochemical
Set-up in all cases: KINOMEscan active site-directed competition binding assay (DiscoveRx), 456 kinases, per cent of control at 300 nM
Settings in all cases: read-out: Percent of Control (%)

For assay [1], the target named is ZAP70 (Homo sapiens, UniProt P43403). A digest of the protocol:
(§1)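 Compounds at 300 nmol/L screened against 456 kinases by KINOMEscan, a competition binding assay measuring displacement at the kinase active site.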

In assay [2] the target is ANKK1 (Homo sapiens, UniProt Q8NFD2). An outline of the steps: as §1
Assay [3] has as its target ERBB3 (Homo sapiens, UniProt P21860). A digest of the protocol: as §1
Assay [4] deals with RET(V804L) (Homo sapiens, UniProt P07949, V804L). An outline of the steps:
as §1

In assay [5] the target is PIK3CA(E545K) (Homo sapiens, UniProt P42336, E545K). An outline of the steps:
as §1

The target in assay [6] is RIPK2 (Homo sapiens, UniProt O43353). An outline of the steps: as §1
Assay [7] concerns the target T1, JAK1(JH1domain-catalytic) (Homo sapiens, UniProt P23458).
T1 construct: JH1domain-catalytic
An outline of the steps:
as §1

For assay [8], the target named is KIT(V559D,V654A) (Homo sapiens, UniProt P10721, V559D/V654A). An outline of the steps:
as §1

Assay [9] concerns the target PHKG2 (Homo sapiens, UniProt P15735). An outline of the steps:
as §1

Assay [10] deals with T2, ERK5 (Homo sapiens, UniProt Q13164).
T2 construct: gene MAPK7
An outline of the steps: as §1

The target of assay [11] is HUNK (Homo sapiens, UniProt P57058). A digest of the protocol: as §1
Assay [12] deals with AAK1 (Homo sapiens, UniProt Q2M2I8). An outline of the steps: as §1
Assay [13] addresses T3, MLK1 (Homo sapiens, UniProt P80192).
T3 construct: gene MAP3K9
An outline of the steps: as §1

Assay [14] addresses CAMK2B (Homo sapiens, UniProt Q13554). A digest of the protocol:
as §1

For assay [15], the target named is CDK5 (Homo sapiens, UniProt Q00535). An outline of the steps:
as §1

Assay [16] addresses CDK9 (Homo sapiens, UniProt P50750). An outline of the steps: as §1
The target in assay [17] is GRK1 (Homo sapiens, UniProt Q15835). An outline of the steps:
as §1

The target of assay [18] is T4, PRKR (Homo sapiens, UniProt P19525).
T4 construct: gene EIF2AK2
A digest of the protocol:
as §1

Assay [19] deals with AXL (Homo sapiens, UniProt P30530). An outline of the steps: as §1
Assay [20] concerns the target MAPKAPK5 (Homo sapiens, UniProt Q8IW41). A digest of the protocol: as §1
Assay [21] has as its target PIM2 (Homo sapiens, UniProt Q9P1W9). An outline of the steps: as §1
Assay [22] has as its target T5, BRK (Homo sapiens, UniProt Q13882).
T5 construct: gene PTK6
An outline of the steps: as §1

Where two headings read alike, the source gives them in different places.

Sequence of PIK3CA(E545K) (P42336 whole entry E545K): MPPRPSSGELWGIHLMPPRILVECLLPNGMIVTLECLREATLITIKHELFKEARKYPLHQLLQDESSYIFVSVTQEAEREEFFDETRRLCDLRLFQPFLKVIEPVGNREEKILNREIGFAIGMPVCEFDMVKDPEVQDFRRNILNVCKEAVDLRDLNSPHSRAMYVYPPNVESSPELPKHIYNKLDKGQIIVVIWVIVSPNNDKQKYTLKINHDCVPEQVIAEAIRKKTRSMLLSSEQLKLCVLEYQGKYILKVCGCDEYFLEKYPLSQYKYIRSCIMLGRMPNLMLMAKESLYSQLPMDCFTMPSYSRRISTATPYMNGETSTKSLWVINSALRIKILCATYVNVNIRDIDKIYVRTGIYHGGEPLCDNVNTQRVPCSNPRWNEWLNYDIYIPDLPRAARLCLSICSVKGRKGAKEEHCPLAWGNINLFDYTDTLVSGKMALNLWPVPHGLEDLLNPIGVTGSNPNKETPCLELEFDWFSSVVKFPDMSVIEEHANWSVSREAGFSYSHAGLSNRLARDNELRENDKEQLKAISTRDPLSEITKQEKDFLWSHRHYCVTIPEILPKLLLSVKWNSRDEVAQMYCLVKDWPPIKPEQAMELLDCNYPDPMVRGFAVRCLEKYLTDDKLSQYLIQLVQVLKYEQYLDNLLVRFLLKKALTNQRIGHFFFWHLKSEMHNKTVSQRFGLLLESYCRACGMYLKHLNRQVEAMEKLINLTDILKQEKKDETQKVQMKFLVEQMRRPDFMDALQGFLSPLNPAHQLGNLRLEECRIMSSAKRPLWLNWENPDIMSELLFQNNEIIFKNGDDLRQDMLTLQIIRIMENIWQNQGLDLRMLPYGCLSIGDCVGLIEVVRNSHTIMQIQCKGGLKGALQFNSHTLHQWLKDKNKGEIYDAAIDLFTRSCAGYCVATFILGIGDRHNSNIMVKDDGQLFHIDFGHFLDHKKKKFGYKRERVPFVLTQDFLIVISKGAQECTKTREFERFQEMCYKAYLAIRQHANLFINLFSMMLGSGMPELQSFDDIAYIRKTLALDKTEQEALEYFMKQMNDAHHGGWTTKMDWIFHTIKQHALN
T5 sequence (Q13882 whole entry): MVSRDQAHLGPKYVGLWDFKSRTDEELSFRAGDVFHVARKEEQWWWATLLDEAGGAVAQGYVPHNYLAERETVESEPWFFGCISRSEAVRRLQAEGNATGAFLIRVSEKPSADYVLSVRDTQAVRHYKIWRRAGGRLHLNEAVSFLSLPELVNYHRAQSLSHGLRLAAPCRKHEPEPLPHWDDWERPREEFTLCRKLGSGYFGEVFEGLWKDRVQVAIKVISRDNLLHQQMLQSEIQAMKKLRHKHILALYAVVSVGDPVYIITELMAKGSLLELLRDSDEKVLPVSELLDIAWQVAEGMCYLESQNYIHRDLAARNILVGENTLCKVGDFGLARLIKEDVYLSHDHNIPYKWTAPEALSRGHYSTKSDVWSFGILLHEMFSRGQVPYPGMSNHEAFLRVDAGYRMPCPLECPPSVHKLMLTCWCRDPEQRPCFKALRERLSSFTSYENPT
Sequence of GRK1 (Q15835 whole entry): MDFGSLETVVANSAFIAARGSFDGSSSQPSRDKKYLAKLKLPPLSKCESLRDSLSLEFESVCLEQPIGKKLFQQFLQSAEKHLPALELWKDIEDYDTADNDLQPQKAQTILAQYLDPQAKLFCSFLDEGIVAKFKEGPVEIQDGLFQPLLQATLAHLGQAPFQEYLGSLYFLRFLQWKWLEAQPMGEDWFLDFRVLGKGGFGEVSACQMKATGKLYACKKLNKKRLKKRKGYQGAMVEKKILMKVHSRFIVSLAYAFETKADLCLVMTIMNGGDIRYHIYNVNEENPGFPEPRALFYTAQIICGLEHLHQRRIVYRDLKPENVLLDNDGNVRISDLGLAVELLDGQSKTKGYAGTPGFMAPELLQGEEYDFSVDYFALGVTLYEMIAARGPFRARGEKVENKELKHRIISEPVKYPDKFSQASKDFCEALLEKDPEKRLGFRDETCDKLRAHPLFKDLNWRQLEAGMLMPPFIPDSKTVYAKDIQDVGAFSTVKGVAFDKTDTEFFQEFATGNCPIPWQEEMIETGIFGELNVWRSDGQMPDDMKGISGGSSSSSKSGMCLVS
Sequence of ERBB3 (P21860 whole entry): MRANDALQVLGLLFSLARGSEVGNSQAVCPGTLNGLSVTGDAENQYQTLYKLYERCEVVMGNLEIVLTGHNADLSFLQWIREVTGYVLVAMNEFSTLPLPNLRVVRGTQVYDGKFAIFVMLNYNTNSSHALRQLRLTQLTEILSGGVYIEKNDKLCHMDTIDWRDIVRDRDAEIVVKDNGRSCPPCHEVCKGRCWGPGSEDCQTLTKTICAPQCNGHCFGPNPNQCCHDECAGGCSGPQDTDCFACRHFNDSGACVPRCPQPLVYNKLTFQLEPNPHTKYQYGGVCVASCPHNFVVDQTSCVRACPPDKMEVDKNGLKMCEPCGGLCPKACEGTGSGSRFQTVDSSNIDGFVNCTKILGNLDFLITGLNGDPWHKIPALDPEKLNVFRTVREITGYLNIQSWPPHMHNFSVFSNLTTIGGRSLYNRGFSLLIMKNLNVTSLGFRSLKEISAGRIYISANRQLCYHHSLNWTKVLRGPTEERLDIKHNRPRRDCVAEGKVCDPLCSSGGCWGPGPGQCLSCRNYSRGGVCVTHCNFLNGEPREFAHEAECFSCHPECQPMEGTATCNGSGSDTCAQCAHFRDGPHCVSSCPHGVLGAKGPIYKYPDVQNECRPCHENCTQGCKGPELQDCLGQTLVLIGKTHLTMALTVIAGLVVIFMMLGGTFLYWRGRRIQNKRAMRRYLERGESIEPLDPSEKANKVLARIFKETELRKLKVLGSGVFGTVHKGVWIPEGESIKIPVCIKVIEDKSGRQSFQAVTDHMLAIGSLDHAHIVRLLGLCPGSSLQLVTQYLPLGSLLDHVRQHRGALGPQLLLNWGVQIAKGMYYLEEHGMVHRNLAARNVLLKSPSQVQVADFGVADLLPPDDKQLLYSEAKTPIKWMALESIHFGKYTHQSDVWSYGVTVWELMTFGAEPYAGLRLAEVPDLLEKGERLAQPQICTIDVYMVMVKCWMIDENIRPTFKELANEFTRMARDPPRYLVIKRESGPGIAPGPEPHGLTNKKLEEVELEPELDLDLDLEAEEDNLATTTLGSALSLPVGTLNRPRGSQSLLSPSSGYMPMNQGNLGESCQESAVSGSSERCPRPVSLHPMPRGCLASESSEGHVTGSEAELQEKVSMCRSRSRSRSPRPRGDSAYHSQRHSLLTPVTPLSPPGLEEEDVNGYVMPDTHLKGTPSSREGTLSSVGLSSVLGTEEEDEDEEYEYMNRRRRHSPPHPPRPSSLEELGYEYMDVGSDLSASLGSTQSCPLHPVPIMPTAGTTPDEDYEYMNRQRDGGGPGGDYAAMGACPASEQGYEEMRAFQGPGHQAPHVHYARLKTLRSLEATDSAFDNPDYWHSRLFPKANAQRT
T1 sequence (P23458 whole entry): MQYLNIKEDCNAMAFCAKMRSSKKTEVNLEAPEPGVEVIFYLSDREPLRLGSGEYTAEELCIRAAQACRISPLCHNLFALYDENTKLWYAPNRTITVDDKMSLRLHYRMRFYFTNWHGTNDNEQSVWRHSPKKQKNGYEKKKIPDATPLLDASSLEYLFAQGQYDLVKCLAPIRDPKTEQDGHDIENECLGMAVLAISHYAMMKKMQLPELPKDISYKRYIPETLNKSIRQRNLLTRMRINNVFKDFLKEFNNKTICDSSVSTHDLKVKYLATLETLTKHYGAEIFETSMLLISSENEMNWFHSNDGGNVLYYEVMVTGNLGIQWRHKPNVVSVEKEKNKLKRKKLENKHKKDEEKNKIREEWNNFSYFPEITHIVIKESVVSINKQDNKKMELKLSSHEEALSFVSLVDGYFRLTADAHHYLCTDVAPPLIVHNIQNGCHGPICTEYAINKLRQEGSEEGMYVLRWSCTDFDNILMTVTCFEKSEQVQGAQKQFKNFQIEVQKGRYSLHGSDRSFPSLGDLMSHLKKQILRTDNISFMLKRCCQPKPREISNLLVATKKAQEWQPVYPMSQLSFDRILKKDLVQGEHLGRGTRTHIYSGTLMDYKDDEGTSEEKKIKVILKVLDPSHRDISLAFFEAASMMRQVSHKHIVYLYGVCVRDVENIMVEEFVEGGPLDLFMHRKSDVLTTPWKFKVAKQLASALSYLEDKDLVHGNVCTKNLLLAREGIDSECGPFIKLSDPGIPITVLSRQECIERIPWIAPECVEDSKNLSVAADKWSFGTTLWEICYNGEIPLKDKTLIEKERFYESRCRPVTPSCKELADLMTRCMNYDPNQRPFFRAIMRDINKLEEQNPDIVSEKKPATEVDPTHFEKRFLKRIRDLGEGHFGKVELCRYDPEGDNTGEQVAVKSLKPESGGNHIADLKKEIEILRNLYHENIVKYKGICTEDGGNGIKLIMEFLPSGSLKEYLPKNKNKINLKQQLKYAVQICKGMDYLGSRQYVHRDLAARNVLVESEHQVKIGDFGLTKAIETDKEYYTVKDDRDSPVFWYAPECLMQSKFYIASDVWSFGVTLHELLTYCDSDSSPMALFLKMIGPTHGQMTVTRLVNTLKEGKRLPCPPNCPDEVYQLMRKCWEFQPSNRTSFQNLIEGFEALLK
Sequence of CDK9 (P50750 whole entry): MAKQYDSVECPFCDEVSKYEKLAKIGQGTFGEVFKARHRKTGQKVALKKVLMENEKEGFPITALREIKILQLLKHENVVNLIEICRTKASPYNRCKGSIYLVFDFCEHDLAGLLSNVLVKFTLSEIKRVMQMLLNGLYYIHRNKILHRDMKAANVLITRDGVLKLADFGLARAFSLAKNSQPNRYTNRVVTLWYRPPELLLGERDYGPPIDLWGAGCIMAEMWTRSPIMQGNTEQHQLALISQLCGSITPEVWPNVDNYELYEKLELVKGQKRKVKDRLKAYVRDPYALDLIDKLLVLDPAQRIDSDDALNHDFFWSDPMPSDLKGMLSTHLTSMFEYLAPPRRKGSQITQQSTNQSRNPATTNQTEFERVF

On to `Cc1ncccc1Oc1sc(C(N)=O)c2c1-c1c(cnn1C)CC2` [T-474, 1-methyl-8-((2-methylpyridin-3-yl)oxy)-4,5-dihydro-1H-thieno[3,4-g]indazole-6-carboxamide], for which the remaining binding at 0.3 µM in assay [1] is 100%; in [2], 100%; in assay [3], 78%; in assay [4] it was 94%; in [5], 100%; in assay [6] it was 100%. The remaining binding at 0.3 µM in assay [7] stood at 73%; in assay [8], 100%; in [9] it was 88%; in [10], 98%; in [11], 100%; in assay [12] it was 93%. Also, the remaining binding at 0.3 µM was 100% in [13]; 99% in [14]; 94% in [15]; 80% in assay [16]; 100% in assay [17]; 100% in assay [18]. Also, the remaining binding at 0.3 µM stood at 83% in [19], 98% in assay [20], 80% in assay [21] and 100% in assay [22].
Regarding `O=C(/C=C/c1cnccc1-c1ccc(F)cc1)Nc1ccc(CCc2nnco2)cc1` [T-418, (2E)-3-(4-(4-fluorophenyl)pyridin-3-yl)-N-(4-(2-(1,3,4-oxadiazol-2-yl)ethyl)phenyl)acrylamide], the remaining binding at 0.3 µM in assay [1] (sheet T-418) is 86%; in [2] (sheet T-418), 89%; in assay [3] (sheet T-418), 76%; in assay [4] (sheet T-418), 81%; in [5] (sheet T-418) it was 82%; in assay [6] (sheet T-418), 100%. Moreover, the remaining binding at 0.3 µM is 69% in [7] (sheet T-418); 96% in [8] (sheet T-418); 71% in assay [9] (sheet T-418); 75% in [10] (sheet T-418); 100% in assay [11] (sheet T-418); 83% in assay [12] (sheet T-418). In addition, the remaining binding at 0.3 µM in assay [13] (sheet T-418) came to 100%; in [14] (sheet T-418) it was 84%; in assay [15] (sheet T-418), 80%; in assay [16] (sheet T-418), 83%; in assay [17] (sheet T-418), 100%; in assay [18] (sheet T-418) it was 100%. Also, the remaining binding at 0.3 µM in [19] (sheet T-418) was 73%; in assay [20] (sheet T-418), 92%; in assay [21] (sheet T-418), 89%; in assay [22] (sheet T-418), 87%.
